Data published in ChEMBL document CHEMBL1145742, “Investigation of an antibody-ligase. Evidence for strain-induced catalysis” (Bioorg Med Chem Lett, 2003).

Experiments:
[1] = Kinetic parameter KM against monoclonal antibody 16 G3
[2] = Kinetic parameter effective molarity against monoclonal antibody 16 G3
[3] = Kinetic parameter Kcat against monoclonal antibody 16 G3
[4] = Kinetic parameter Kuncat against monoclonal antibody 16 G3
[5] = Substrate specificity, the ratio of Kcat to that of Km was determined against monoclonal antibody 16 G3
[6] = Kinetic parameter Vmax against monoclonal antibody 16 G3

Row | SMILES | Km [1] | Molarity [2] | k cat [3] | Kuncat [4] | Substrate specificity [5] | Vmax [6]
1 | NC(=O)[C@H](N)Cc1c[nH]c2ccccc12 | 900 µM | – | – | – | – | –
2 | O=C(O)CCCC(=O)N[C@@H](Cc1ccccc1)C(=O)Oc1ccc([N+](=O)[O-])cc1 | 100 µM | 15 M | 0.01 s⁻¹ | 0.000667 M⁻¹ s⁻¹ | 6 | 6 µM/min
3 | O=C(O)CCCC(=O)N[C@H](C(=O)Oc1ccc([N+](=O)[O-])cc1)C1CCCCC1 | 300 µM | 2 M | 0.00167 s⁻¹ | 0.000833 M⁻¹ s⁻¹ | 3 | 1 µM/min
